From patent US12150995B2, “IRAK degraders and uses thereof” (Kymera Therapeutics, Inc., priority 2020, dated 2024)

Biological target: T1, IRAK4 (Homo sapiens, UniProt Q9NWZ3)
T1 construct: endogenous in cells; host or cells: OCI-LY10
T1 sequence (Q9NWZ3 1-460): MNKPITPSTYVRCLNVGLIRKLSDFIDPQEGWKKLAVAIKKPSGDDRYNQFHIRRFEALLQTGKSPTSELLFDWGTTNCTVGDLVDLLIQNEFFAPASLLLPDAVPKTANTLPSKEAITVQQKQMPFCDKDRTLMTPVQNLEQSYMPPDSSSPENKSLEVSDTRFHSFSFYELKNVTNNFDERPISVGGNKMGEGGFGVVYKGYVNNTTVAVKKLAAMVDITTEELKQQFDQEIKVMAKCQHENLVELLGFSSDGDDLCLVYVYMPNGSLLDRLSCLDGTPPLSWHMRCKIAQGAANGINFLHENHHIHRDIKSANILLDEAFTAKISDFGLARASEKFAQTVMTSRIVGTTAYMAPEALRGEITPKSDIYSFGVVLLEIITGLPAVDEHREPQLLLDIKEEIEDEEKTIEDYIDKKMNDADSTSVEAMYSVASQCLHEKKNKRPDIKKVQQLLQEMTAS
Test: IRAK4 MSD Degradation in OCI-LY10
Format: cell-based
Details: OCI-LY10 cells, Meso Scale Discovery, incubated 4 to 24 hours
Outline: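 OCI-LY10 cells (300,000/well) exposed to an 8-point 1:3 series from a top concentration of 1 to 10 μM for 4 to 24 h at 37 °C. IRAK4 remaining in RIPA lysates quantified by MSD sandwich immunoassay; DC50 from a three-parameter logistic fit.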

Cc1ccc2c(c1C1CCN(C[C@H]3C[C@H](n4cc5cc(NC(=O)c6cccc(C(F)(F)F)n6)c(Cl)cc5n4)C3)CC1)n(C)c(=O)n2C1CCC(=O)NC1=O (stereo partly shown) [I-143] gave a DC50 of 0.05 to 0.1 µM.
Compound Cn1c(=O)n(C2CCC(=O)NC2=O)c2ccc(Cl)c(C3CCN(C[C@H]4C[C@H](n5cc6cc(NC(=O)c7cccc(C(F)(F)F)n7)c(Cl)cc6n5)C4)CC3)c21 (stereo partly shown) [I-144] has a DC50 of 0.05 to 0.1 µM.
For COc1ccc2c(c1C1CCN(C[C@H]3C[C@H](n4cc5cc(NC(=O)c6cccc(C(F)(F)F)n6)c(Cl)cc5n4)C3)CC1)n(C)c(=O)n2C1CCC(=O)NC1=O (stereo partly shown) [I-145], the DC50 was 0.01 to 0.05 µM.
Cn1c(=O)n(C2CCC(=O)NC2=O)c2ccc(F)c(C3CCN(C[C@H]4C[C@H](n5cc6cc(NC(=O)c7cccc(C(F)(F)F)n7)ncc6n5)C4)CC3)c21 (stereo partly shown) [I-147] gave a DC50 of 0.05 to 0.1 µM.
Cc1ccc2c(c1C1CCN(C[C@H]3C[C@H](n4cc5cc(NC(=O)c6cccc(C(F)(F)F)n6)ccc5n4)C3)CC1)n(C)c(=O)n2C1CCC(=O)NC1=O (stereo partly shown) [I-148] was tested, and the DC50 was 0.1 to 0.2 µM.
For Cn1c(=O)n(C2CCC(=O)NC2=O)c2ccc(Cl)c(C3CCN(C[C@H]4C[C@H](n5cc6cc(NC(=O)c7cccc(C(F)(F)F)n7)ncc6n5)C4)CC3)c21 (stereo partly shown) [I-149], the DC50 was 0.1 to 0.2 µM.
For Cn1c(=O)n(C2CCC(=O)NC2=O)c2ccc(Cl)c(C3CCN(C[C@H]4C[C@H](n5cc6cc(NC(=O)c7cccc(C(F)(F)F)n7)ccc6n5)C4)CC3)c21 (stereo partly shown) [I-150], the DC50 was 0.1 to 0.2 µM.
Cn1c(=O)n(C2CCC(=O)NC2=O)c2ccc(F)c(C3CCN(C[C@H]4C[C@H](n5cc6cc(NC(=O)c7cccc(C(F)(F)F)n7)ccc6n5)C4)CC3)c21 (stereo partly shown) [I-151] gave a DC50 of less than 0.01 µM.
COc1ccc2c(c1C1CCN(C[C@H]3C[C@H](n4cc5cc(NC(=O)c6cccc(C(F)(F)F)n6)ccc5n4)C3)CC1)n(C)c(=O)n2C1CCC(=O)NC1=O (stereo partly shown) [I-152] gave a DC50 of 0.01 to 0.05 µM.
Compound COc1cc2nn([C@H]3CC[C@H](CN4C[C@H]5C[C@@H]4CN5c4cccc5c(N6CCC(=O)NC6=O)cncc45)CC3)cc2cc1NC(=O)c1cccc(C(F)(F)F)n1 [I-155] has a DC50 of 0.01 to 0.05 µM.
COc1cc2nn([C@H]3CC[C@H](CN4[C@@H]5C[C@H]4CN(c4cccc6c4n(C)c(=O)n6C4CCC(=O)NC4=O)C5)CC3)cc2cc1NC(=O)c1cccc(C(F)(F)F)n1 (stereo partly shown) [I-158] gave a DC50 of less than 0.01 µM.
Work on CC(C)Nc1cc(-n2ccc3cc(C#N)cnc32)ncc1-c1cn([C@H]2CC[C@H](CN3CCC(c4cccc5c4n(C)c(=O)n5C4CCC(=O)NC4=O)CC3)CC2)nn1 (stereo partly shown) [I-159] yielded a DC50 of less than 0.01 µM.
For Cn1c(=O)n(C2CCC(=O)NC2=O)c2cccc(N3CCN(C[C@H]4CC[C@H](n5cc6cc(NC(=O)c7cncc(C#N)c7)c(OC(F)(F)F)cc6n5)CC4)CC3)c21 (stereo partly shown) [I-160], the DC50 was greater than 0.2 µM.
O=C1CCN(c2cncc3cc(N4CCN(C[C@H]5CC[C@H](n6cc7cc(NC(=O)c8cccc(C(F)(F)F)n8)ccc7n6)CC5)CC4)ccc23)C(=O)N1 [I-161] gave a DC50 greater than 0.2 µM.
Compound Cc1ccc2c(c1C1CCN(C[C@H]3CC[C@H](n4cc5cc(NC(=O)c6cccc(C(F)(F)F)n6)ncc5n4)CC3)CC1)n(C)c(=O)n2C1CCC(=O)N(C)C1=O (stereo partly shown) [I-162] has a DC50 greater than 0.2 µM.
Compound C[C@@H]1CN(c2cccc3c2n(C)c(=O)n3C2CCC(=O)NC2=O)CCN1C[C@H]1CC[C@H](n2cc3cc(NC(=O)c4cccc(C(F)(F)F)n4)ccc3n2)CC1 (stereo partly shown) [I-163] has a DC50 of less than 0.01 µM.
Cn1c(=O)n(C2CCC(=O)NC2=O)c2cccc(N3CC4CCC(C3)N4C[C@H]3CC[C@H](n4cc5cc(NC(=O)c6cccc(C(F)(F)F)n6)ccc5n4)CC3)c21 (stereo partly shown) [I-164] was tested, and the DC50 was less than 0.01 µM.
COc1cc2nn([C@H]3CC[C@H](CN4CCN(c5cccc6c5n(C)c(=O)n6C5CCC(=O)NC5=O)CC4)CC3)cc2cc1NC(=O)c1cncc(C#N)c1 (stereo partly shown) [I-165] showed a DC50 of less than 0.01 µM.
Compound COc1cc2nn([C@H]3CC[C@H](CN4C[C@H]5C[C@@H]4CN5c4cccc5c4n(C)c(=O)n5C4CCC(=O)NC4=O)CC3)cc2cc1NC(=O)c1cncc(C#N)c1 (stereo partly shown) [I-166] has a DC50 greater than 0.2 µM.
For COc1cc2nn([C@H]3CC[C@H](CN4C5CCC4CN(c4cccc6c4n(C)c(=O)n6C4CCC(=O)NC4=O)C5)CC3)cc2cc1NC(=O)c1cccc(C(F)(F)F)n1 (stereo partly shown) [I-167], the DC50 was less than 0.01 µM.
In the case of COc1cc2nn([C@H]3CC[C@H](CN4C[C@@H]5C[C@H]4CN5c4cccc5c4n(C)c(=O)n5C4CCC(=O)NC4=O)CC3)cc2cc1NC(=O)c1cccc(C(F)(F)F)n1 (stereo partly shown) [I-168], the DC50 is reported as less than 0.01 µM.
Compound COc1cc2nn([C@H]3CC[C@H](CN4CCC(c5ccc6c(c5)n(C)c(=O)n6C5CCC(=O)NC5=O)CC4)CC3)cc2cc1NC(=O)c1cncc(C#N)c1 (stereo partly shown) [I-169] has a DC50 greater than 0.2 µM.
N#Cc1cnc2c(C(=O)Nc3ccc4nn([C@H]5CC[C@H](CN6CCC(c7ccc8c(N9CCC(=O)NC9=O)cncc8c7)CC6)CC5)cc4c3)cnn2c1 [I-170, 6-Cyano-N-[2-[4-[[4-[4-(2,4-dioxohexahydropyrimidin-1-yl)-7-isoquinolyl]-1-piperidyl]methyl]cyclohexyl]indazol-5-yl]pyrazolo[1,5-a]pyrimidine-3-carboxamide] gave a DC50 greater than 0.2 µM.
O=C1CCN(c2cncc3c(C4CCN(C[C@H]5CC[C@H](c6nc7cnc(NC(=O)c8cccc(C(F)(F)F)n8)cc7s6)CC5)CC4)cccc23)C(=O)N1 [I-171] was tested, and the DC50 was 0.01 to 0.05 µM.
Cn1c(=O)n(C2CCC(=O)NC2=O)c2cccc(C3CCN(C[C@H]4CC[C@H](n5cc6cc(NC(=O)c7cccc(C(F)(F)F)n7)ccc6n5)CC4)C(C(F)(F)F)C3)c21 (stereo partly shown) [I-172] showed a DC50 greater than 0.2 µM.
With COc1cc2nn([C@H]3CC[C@H](CN4CCC(c5ccc6c(c5C)n(C)c(=O)n6C5CCC(=O)NC5=O)CC4)CC3)cc2cc1NC(=O)c1cccc(C(F)(F)F)n1 (stereo partly shown) [I-173] the DC50 was less than 0.01 µM.
COc1cc2nn([C@H]3CC[C@H](CN4CCC(c5cccc6c5n(C)c(=O)n6C5CCC(=O)NC5=O)CC4)CC3)cc2cc1NC(=O)c1ccccc1F (stereo partly shown) [I-174] showed a DC50 of less than 0.01 µM.
Compound COc1cc2nn([C@H]3CC[C@H](CN4CCC(c5cccc6c5n(C)c(=O)n6C5CCC(=O)NC5=O)CC4)CC3)cc2cc1NC(=O)c1nc(C(F)(F)F)cs1 (stereo partly shown) [I-175] has a DC50 of less than 0.01 µM.
For COc1cc(NC(=O)c2cccc(C(F)(F)F)n2)cc2cn([C@H]3CC[C@H](CN4CCC(c5cccc6c5n(C)c(=O)n6C5CCC(=O)NC5=O)CC4)CC3)nc12 (stereo partly shown) [I-176], the DC50 was less than 0.01 µM.
Compound COc1cc2nn([C@H]3CC[C@H](CN4CCC(c5ccc6c(c5Cl)n(C)c(=O)n6C5CCC(=O)NC5=O)CC4)CC3)cc2cc1NC(=O)c1cccc(C(F)(F)F)n1 (stereo partly shown) [I-177] has a DC50 of less than 0.01 µM.
For Cn1c(=O)n(C2CCC(=O)NC2=O)c2ccc(C3CCN(C[C@H]4CC[C@H](n5cc6cc(NC(=O)c7cccc(C(F)(F)F)n7)ncc6n5)CC4)CC3)c(Cl)c21 (stereo partly shown) [I-178], the DC50 was greater than 0.2 µM.
CC(C)Nc1cc(-c2ccc3cc(C#N)cnn23)ncc1C(=O)N[C@H]1CC[C@H](CN(C)C2CCN(c3cccc4c3n(C)c(=O)n4C3CCC(=O)NC3=O)CC2)CC1 (stereo partly shown) [I-179] was tested, and the DC50 was less than 0.01 µM.
Work on Cn1c(=O)n(C2CCC(=O)NC2=O)c2ccc(C3CCN(C[C@H]4CC[C@H](n5cc6cc(NC(=O)c7cccc(C(F)(F)F)n7)ccc6n5)CC4)CC3)c(Cl)c21 (stereo partly shown) [I-180] yielded a DC50 greater than 0.2 µM.
In the case of O=C1CCN(c2cncc3cc(C4CCN(C[C@H]5CC[C@H](c6nc7ccc(NC(=O)c8cccc(C(F)(F)F)n8)cc7s6)CC5)CC4)ccc23)C(=O)N1 [I-181], the DC50 is reported as greater than 0.2 µM.
With COc1cc2nc([C@H]3CC[C@H](CN4CCC(c5cccc6c5n(C)c(=O)n6C5CCC(=O)NC5=O)CC4)CC3)sc2cc1NC(=O)c1cncc(Cl)c1 (stereo partly shown) [I-182] the DC50 was less than 0.01 µM.
CC(C)Nc1cc(-c2ccc3cc(C#N)cnn23)ncc1C(=O)N[C@H]1CC[C@H](CN2CCC(c3cccc4c3n(C)c(=O)n4C3CCC(=O)NC3=O)CC2)CC1 (stereo partly shown) [I-183] showed a DC50 of less than 0.01 µM.
CC(C)Nc1cc(-c2ccc3cc(C#N)cnn23)ncc1C(=O)N[C@H]1CC[C@H](CN2CCC(c3cccc4c(N5CCC(=O)NC5=O)cncc34)CC2)CC1 [I-184] gave a DC50 of less than 0.01 µM.
For COc1cc2nc([C@H]3CC[C@H](CN4CCC(c5cccc6c5n(C)c(=O)n6C5CCC(=O)NC5=O)CC4)CC3)sc2cc1NC(=O)c1cncc(C#N)c1 (stereo partly shown) [I-185], the DC50 was less than 0.01 µM.
Compound CN(C(=O)[C@H]1CC[C@H](n2cc3cc(NC(=O)c4cccc(C(F)(F)F)n4)ccc3n2)CC1)C1CCN(c2cccc3c2n(C)c(=O)n3C2CCC(=O)NC2=O)CC1 (stereo partly shown) [I-186] has a DC50 of less than 0.01 µM.
CN(C(=O)[C@H]1CC[C@H](n2cc3cc(NC(=O)c4cccc(C(F)(F)F)n4)ncc3n2)CC1)C1CCN(c2cccc3c2n(C)c(=O)n3C2CCC(=O)NC2=O)CC1 (stereo partly shown) [I-187] was tested, and the DC50 was less than 0.01 µM.
Cn1c(=O)n(C2CCC(=O)NC2=O)c2cccc(C3CCN(C(=O)[C@H]4CC[C@H](n5cc6cc(NC(=O)c7cccc(C(F)(F)F)n7)ncc6n5)CC4)CC3)c21 (stereo partly shown) [I-188] gave a DC50 greater than 0.2 µM.
Cn1c(=O)n(C2CCC(=O)NC2=O)c2cccc(C3CCN(C[C@H]4CC[C@H](n5cc6cc(NC(=O)c7cccc(C(F)(F)F)n7)c(C#N)cc6n5)CC4)CC3)c21 (stereo partly shown) [I-189] gave a DC50 of less than 0.01 µM.
CC(C)Nc1cc(-n2ccc3cc(C#N)cnc32)ncc1C(=O)N[C@H]1CC[C@H](CN2CCC(c3cccc4c(N5CCC(=O)NC5=O)cncc34)CC2)CC1 [I-190] showed a DC50 of less than 0.01 µM.
In the case of COc1cc2nc([C@H]3CC[C@H](CN4CCC(c5cccc6c(N7CCC(=O)NC7=O)cncc56)CC4)CC3)sc2cc1NC(=O)c1cccc(C(F)(F)F)n1 [I-191], the DC50 is reported as 0.01 to 0.05 µM.
Compound COc1cc2nn([C@H]3CC[C@H](CN4CCC(c5cccc6c5n(C)c(=O)n6C5CCC(=O)NC5=O)CC4)CC3)cc2cc1NC(=O)c1cnc(OC)c(Cl)c1 (stereo partly shown) [I-193] has a DC50 greater than 0.2 µM.
COc1cc2nn([C@H]3CC[C@H](CN4CCC(c5cccc6c5n(C)c(=O)n6C5CCC(=O)NC5=O)CC4)CC3)cc2cc1NC(=O)c1ccc(C(F)(F)F)nc1 (stereo partly shown) [I-194] gave a DC50 greater than 0.2 µM.
